For data set [1], the target named is T1, human liver FBPase (hlFBPase) (Homo sapiens, UniProt P09467).
T1 construct: made in house; host or cells: E. coli BL21 (transformed strain from Dr. M. R. El-Maghrabi, SUNY Stony Brook)
T1 sequence (P09467 2-338 limits assumed): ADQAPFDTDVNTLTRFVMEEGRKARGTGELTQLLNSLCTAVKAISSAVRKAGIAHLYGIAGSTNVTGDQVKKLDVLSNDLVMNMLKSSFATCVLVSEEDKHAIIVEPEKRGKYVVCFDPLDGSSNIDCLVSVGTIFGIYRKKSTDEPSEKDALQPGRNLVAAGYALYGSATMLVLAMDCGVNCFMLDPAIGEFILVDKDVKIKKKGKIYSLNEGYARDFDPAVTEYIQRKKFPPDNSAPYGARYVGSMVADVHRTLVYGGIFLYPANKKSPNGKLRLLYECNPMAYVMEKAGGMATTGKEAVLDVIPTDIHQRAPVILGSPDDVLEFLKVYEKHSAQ
Nature of the data set: Inhibition of Human Liver FBPase. The class given is biochemical. The procedure:
(§1) Enzymatic activity was measured spectrophotometrically in reactions that coupled the formation of product (fructose 6-phosphate) to the reduction of dimethylthiazoldiphenyltetrazolium bromide (MTT) via NADP and phenazine methosulfate (PMS), using phosphoglucose isomerase and glucose 6-phosphate dehydrogenase as the coupling enzymes. Reaction mixtures (200 μL) were made up in 96-well microtitre plates, and consisted of 50 mM Tris-HCl, pH 7.4, 100 mM KCl, 5 mM EGTA, 2 mM MgCl2, 0.2 mM NADP, 1 mg/mL BSA, 1 mM MTT, 0.6 mM PMS, 1 unit/mL phosphoglucose isomerase, 2 units/mL glucose 6-phosphate dehydrogenase, and 0.150 mM substrate (fructose 1,6-bisphosphate). Inhibitor concentrations were varied from 0.01 μM to 10 μM. Reactions were started by the addition of 0.002 units of pure hlFBPase and were monitored for 7 minutes at 590 nm in a Molecular Devices Plate Reader (37° C.).

Data set [2] has as its target T2, Mouse liver FBPase (Mus musculus, UniProt Q9QXD6).
T2 construct: Mouse liver FBPase is obtained by homogenizing freshly isolated mouse liver; from tissue; host or cells: freshly isolated mouse liver; 45-75% ammonium sulfate fraction, desalted
T2 sequence (Q9QXD6 2-338 limits assumed): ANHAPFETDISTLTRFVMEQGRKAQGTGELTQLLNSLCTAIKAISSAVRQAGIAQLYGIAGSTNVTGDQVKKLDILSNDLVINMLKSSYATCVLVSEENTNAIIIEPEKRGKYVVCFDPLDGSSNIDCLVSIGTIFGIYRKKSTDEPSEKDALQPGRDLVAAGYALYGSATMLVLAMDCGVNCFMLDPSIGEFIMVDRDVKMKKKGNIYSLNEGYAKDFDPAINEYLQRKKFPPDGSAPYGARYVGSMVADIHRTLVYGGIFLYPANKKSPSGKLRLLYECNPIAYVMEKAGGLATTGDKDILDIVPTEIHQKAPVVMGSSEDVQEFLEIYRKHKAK
Nature of the data set: In vitro Inhibition of Mouse Liver FBPase. It is filed as biochemical. Conditions: partially purified mouse liver fraction, assayed as for human liver FBPase. The procedure: as §1, with “E. coli strain BL21 transformed with a human liver FBPase-encoding plasmid was obtained from Dr. M. R. El-Maghrabi at the State University of New York at Stony Brook. hIFBPase was typically purified from 10 liters of E. coli culture as described (M. Gidh-Jain et al., The Journal of Biological Chemistry 1994, 269, 27732-27738). Enzymatic” for “Enzymatic”
(§2) E. coli strain BL21 transformed with a rat liver FBPase-encoding plasmid is obtained from Dr. M. R. El-Maghrabi at the State University of New York at Stony Brook, and purified as described (El-Maghrabi, M. R., and Pilkis, S. J. Biochem. Biophys. Res. Commun. 1991, 176, 137-144). Mouse liver FBPase is obtained by homogenizing freshly isolated mouse liver in 100 mM Tris-HCl buffer, pH 7.4, containing 1 mM EGTA, and 10% glycerol. The homogenate is clarified by centrifugation, and the 45-75% ammonium sulfate fraction prepared. This fraction is redissolved in the homogenization buffer and desalted on a PD-10 gel filtration column (Biorad) eluted with same. This partially purified fraction is used for enzyme assays. Both rat liver and mouse liver FBPase are assayed as described for human liver FBPase. Generally, as reflected by the higher IC50 values, the rat and mouse liver enzymes are less sensitive to inhibition by the compounds tested than the human liver enzyme.

Data set [3] has as its target T3, rat liver FBPase (Rattus norvegicus, UniProt P19112).
T3 construct: made in house; host or cells: E. coli BL21 (transformed strain from Dr. M. R. El-Maghrabi, SUNY Stony Brook)
T3 sequence (P19112 2-363 limits assumed): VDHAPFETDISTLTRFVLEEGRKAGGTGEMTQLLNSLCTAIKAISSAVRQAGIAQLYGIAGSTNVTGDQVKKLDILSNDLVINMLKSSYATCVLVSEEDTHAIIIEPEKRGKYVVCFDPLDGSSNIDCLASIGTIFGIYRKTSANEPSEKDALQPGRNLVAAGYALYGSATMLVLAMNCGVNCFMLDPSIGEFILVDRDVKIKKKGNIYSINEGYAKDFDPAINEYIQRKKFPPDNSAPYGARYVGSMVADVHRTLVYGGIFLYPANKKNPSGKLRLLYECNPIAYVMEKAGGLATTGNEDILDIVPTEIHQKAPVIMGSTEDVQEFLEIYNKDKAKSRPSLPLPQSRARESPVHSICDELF
Nature of the data set: In vitro Inhibition of Rat Liver FBPase. The class given is biochemical. Conditions: assayed as for human liver FBPase. The procedure:
as §1, with “E. coli strain BL21 transformed with a human liver FBPase-encoding plasmid was obtained from Dr. M. R. El-Maghrabi at the State University of New York at Stony Brook. hIFBPase was typically purified from 10 liters of E. coli culture as described (M. Gidh-Jain et al., The Journal of Biological Chemistry 1994, 269, 27732-27738). Enzymatic” for “Enzymatic”
as §2

The test system of data set [4] is glucose production from lactate/pyruvate in isolated rat hepatocytes. Nature of the data set: Inhibition of Gluconeogenesis in Rat Hepatocytes. It is filed as cell-based. The procedure: Hepatocytes were prepared from overnight fasted Sprague-Dawley rats (250-300 g) according to the procedure of Berry and Friend (Berry, M. N., Friend, D. S., J. Cell. Biol. 1969, 43, 506-520) as modified by Groen (Groen, A. K., Sips, H. J., Vervoorn, R. C., Tager, J. M., Eur. J. Biochem. 1982, 122, 87-93). Hepatocytes (75 mg wet weight/mL) were incubated in 1 mL Krebs-bicarbonate buffer containing 10 mM Lactate, 1 mM pyruvate, 1 mg/mL BSA, and test compound concentrations from 1 to 500 μM. Incubations were carried out in a 95% oxygen, 5% carbon dioxide atmosphere in closed, 50-mL Falcon tubes submerged in a rapidly shaking water bath (37° C.). After 1 hour, an aliquot (0.25 mL) was removed, transferred to an Eppendorf tube and centrifuged. 50 μL of supernatant was then assayed for glucose content using a Sigma Glucose Oxidase kit as per the manufacturer's instructions.

Where [5] appears, read: 0.150 mM fructose 1,6-bisphosphate, pH 7.4, 37° C., read-out: HL FBPase IC50.
Where [6] appears, read: Rattus norvegicus, Hepatocyte, 1 hour.

Like-named read-outs stand apart in the source and are kept apart here. A value given as a limit tells only on which side of the number the result lay.

Regarding `O=C(NCP(=O)(O)O)c1cn2ccccc2n1` [Compound 12.1, 9-aza-2-phosphonomethylaminocarbonylindole], the IC50 in data set [1] (setting [5]) stood at 90 µM.
With `Nc1ncnc2c1ncn2[C@@H]1O[C@H](COP(=O)(O)O)[C@@H](O)[C@H]1O` [adenosine monophosphate (AMP), adenosine monophosphate, reference compound], the IC50 in data set [1] (under the reaction conditions of Example A, read-out: concentration required to inhibit half of the hlFBPase activity) stood at 1 µM.
Consider `Cc1cccn2c(CC(C)C)c(-c3ccc(P(=O)(O)O)o3)nc12` [Compound 14.4, 9-Aza-3-isobutyl-7-methyl-2-(2-(5-phosphono)furanyl)indole], for which the IC50 was 1.6 µM in data set [1] (setting [5]), greater than 30 µM in data set [2] and greater than 25 µM in data set [3].
For `Nc1cccc2c(CCc3ccccc3)c(C(=O)NCP(=O)(O)O)[nH]c12` [Compound 3.1, 7-amino-3-(2-phenethyl)-2-(phosphonomethylaminocarbonyl)indole], testing at 500 µM in data set [4] (setting [6]) gave an inhibition of 41.5%.
For `CC(C)Cn1c(-c2ccc(P(=O)(O)O)o2)cc2ccccc21` [Compound 6.1, 1-isobutyl-2-(2-(5-phosphono)furanyl)indole], the IC50 in data set [1] (setting [5]) is 10.7 µM; in data set [2], greater than 20 µM; in data set [3], greater than 20 µM. Besides, in data set [4], the “dose dependent inhibition of glucose production in rat hepatocytes (FIG. 3)” value was “inhibit glucose production in a dose dependent manner”. For the same compound, the inhibition (as a rule, the percentage by which the read-out fell short of the control) at 500 µM in data set [4] (setting [6]) came out at 64.4%.
`O=P(O)(O)c1ccc(-c2[nH]c3ccccc3c2-c2ccccc2)o1` [Compound 7.2, 3-phenyl-2-(2-(5-phosphono)furanyl)indole]: the IC50 is 8.5 µM in data set [1] (setting [5]), greater than 20 µM in data set [2] and greater than 20 µM in data set [3].
Regarding `Nc1cccc2cc(C(=O)NCP(=O)(O)O)[nH]c12` [Compound 1.1, 7-Amino-2-(phosphonomethylaminocarbonyl)indole], in data set [1] (setting [5]), the IC50 was determined as 10 µM. The “dose-dependent inhibition of hlFBPase (FIG. 2)” value in data set [1] was “dose-dependent inhibition”.
Take `O=P(O)(O)c1ccc(-c2cc3ccccc3[nH]2)o1` [Compound 5.1, 2-(2-(5-phosphono)furanyl)indole]: the values for the IC50 in data set [1] (setting [5]), in data set [2] and in data set [3] were 8.8 µM, greater than 20 µM and greater than 20 µM, respectively. In addition, in data set [4] (setting [6]), the inhibition at 500 µM stood at 39.6%.
`Nc1cccc2c(-c3ccccc3)c(C(=O)NCP(=O)(O)O)[nH]c12` [Compound 2.1, 7-amino-3-phenyl-2-(phosphonomethylaminocarbonyl)indole]: in data set [1], the “dose-dependent inhibition of hlFBPase (FIG. 2)” value is listed as “dose-dependent inhibition”.
Take `Nc1cccn2c(-c3ccccc3)c(COCP(=O)(O)O)nc12` [Compound 11.5, 7-amino-9aza-3-phenyl-2-phosphonomethoxymethyl-indole]: the IC50 turned out to be 10 µM in data set [1] (setting [5]) and 90 µM in data set [3]. The compound further came in with an inhibition at 250 µM in data set [4] (Rattus norvegicus, Hepatocyte, 250 μM, 1 hour) of 50%.
For the compound `CC(C)Cc1c(-c2ccc(P(=O)(O)O)o2)[nH]c2ccc(Cl)cc12` [Compound 10.1, 5-chloro-3-isobutyl-2-(2-(5-phosphono)furanyl)indole], the IC50 in data set [1] (setting [5]) came to 2.5 µM.
The same measure, in the same setting: the result for `O=P(O)(O)COCc1nc2ccccn2c1-c1ccccc1` [Compound 11.3, 9-aza-3-phenyl-2-phosphono-methoxymethylindole] reads 10 µM.
In the case of `O=P(O)(O)c1ccc(-c2[nH]c3ccccc3c2Br)o1` [Compound 7.1, 2-(2-(5-phosphono)furanyl)-3-bromoindole], the IC50 is 8.67 µM in data set [1] (setting [5]), greater than 20 µM in data set [2] and greater than 20 µM in data set [3]. The same compound returned an inhibition at 500 µM in data set [4] (setting [6]) of 45.4%.
Take `COc1ccc2[nH]c(C(=O)NCP(=O)(O)O)cc2c1` [Compound 1.3, Disodium 5-methoxy-2-(phosphonomethylaminocarbonyl)indole]: in data set [1] (setting [5]), the IC50 came out at 60.6 µM. The compound further displayed an inhibition at 500 µM in data set [4] (setting [6]) of 3.4%.
With `CC(C)Cn1c(-c2ccc(P(=O)(O)O)o2)cc2c(N)cccc21` [Compound 9.1, N^1-isobutyl-4-amino-2-(2-(5-phosphone)furanyl)indole], the IC50 in data set [1] (setting [5]) was found to be 32.5 µM. In addition, the “dose dependent inhibition of glucose production in rat hepatocytes (FIG. 3)” value in data set [4] is “inhibit glucose production in a dose dependent manner”. 500 µM produced 57% inhibition in data set [4] (setting [6]).
Consider `O=P(O)(O)c1ccc(-c2cn3cc(Cl)ccc3n2)o1` [Compound 14.2, 9-Aza-5-chloro-2-(2-(5-phosphono)furanyl)indole], for which the IC50 in data set [1] (setting [5]) was found to be 4.5 µM.

The values above are taken from patent US6294672A, “Indole and azaindole inhibitors of Fructose-1,6-biphosphatase” (Metabasis Therapeutics, Inc., priority 2000, dated 2001).
